Data on 28 compounds can be found in patent publication US10858335B2 (Rigel Pharmaceuticals, Inc., priority 2014, dated 2020).

The structures appear in SMILES notation.

In the assay the test system is GDF8 signaling (p-SMAD-3 (Ser423/425)). Put plainly: AlphaScreen SureFire SMAD3 (p-Ser423/425) assay, GDF8-stimulated cells (GDF pSMAD). The assay is classed as cell-based. Particulars: Mus musculus, MPC-11, MPC11; GDF8-stimulated; p-SMAD3 AlphaScreen; read-out: GDF pSMAD (MPC11) (inhibition of GDF8 signaling).
In the case of `Cc1cc(-c2ncccc2-c2ccn3ncc(C(=O)NCCCN4CCCC4)c3c2)ccc1F` [compound 675, 5-(2-(4-Fluoro-3-methylphenyl)pyridin-3-yl)-N-(3-(pyrrolidin-1-yl)propyl)pyrazolo[1,5-a]pyridine-3-carboxamide], the IC50 worked out at 227 nM.

As to `Cc1cc(-c2ncccc2-c2ccn3ncc(C(=O)NCCCN4CCN(C)CC4)c3c2)ccc1F` [compound 676, 5-(2-(4-Fluoro-3-methylphenyl)pyridin-3-yl)-N-(3-(4-methylpiperazin-1-yl)propyl)pyrazolo[1,5-a]pyridine-3-carboxamide], the IC50 was 267 nM. Consider `CCOC(=O)c1cnn2ccc(-c3cccnc3-c3ccc(F)c(C)c3)cc12` [compound 677, Ethyl 5-(2-(4-Fluoro-3-methylphenyl)pyridin-3-yl)pyrazolo[1,5-a]pyridine-3-carboxylate], for which the IC50 worked out at 562 nM. As for `Cc1cc(-c2ncccc2-c2ccn3ncc(C(=O)O)c3c2)ccc1F` [compound 678, 5-(2-(4-Fluoro-3-methylphenyl)pyridin-3-yl)pyrazolo[1,5-a]pyridine-3-carboxylic acid], the IC50 is 2470 nM.

As for `Cc1cc(-c2ncccc2-c2ccc3ncc(C(=O)N[C@@H]4CCCC[C@H]4N)n3c2)ccc1F` [compound 679, N-((1R,2R)-2-Aminocyclohexyl)-6-(2-(4-fluoro-3-methylphenyl)pyridin-3-yl)imidazo[1,2-a]pyridine-3-carboxamide], the IC50 is 10800 nM.

With `Cc1cc(-c2ncccc2-c2ccc3ncc(C(=O)N[C@H]4CCCC[C@@H]4N)n3c2)ccc1F` [compound 680, N-((1S,2S)-2-Aminocyclohexyl)-6-(2-(4-fluoro-3-methylphenyl)pyridin-3-yl)imidazo[1,2-a]pyridine-3-carboxamide], the IC50 was 2130 nM. As for `Cc1cc(-c2ncccc2-c2ccc3ncc(C(=O)NCCN)n3c2)ccc1F` [compound 681, N-(2-Aminoethyl)-6-(2-(4-fluoro-3-methylphenyl)pyridin-3-yl)imidazo[1,2-a]pyridine-3-carboxamide], the IC50 was 288 nM. `Cc1cc(-c2ncccc2-c2ccc3ncc(C(=O)NCCCN)n3c2)ccc1F` [compound 682, N-(3-Aminopropyl)-6-(2-(4-fluoro-3-methylphenyl)pyridin-3-yl)imidazo[1,2-a]pyridine-3-carboxamide]: the IC50 was determined as 539 nM. For the compound `Cc1cc(-c2ncccc2-c2ccn3ncc(C(=O)NCCN)c3c2)ccc1F` [compound 683, N-(2-Aminoethyl)-5-(2-(4-fluoro-3-methylphenyl)pyridin-3-yl)pyrazolo[1,5-a]pyridine-3-carboxamide], the IC50 came to 234 nM. With `Cc1cc(-c2ncccc2-c2ccn3ncc(C(=O)NCCCN)c3c2)ccc1F` [compound 684, N-(3-Aminopropyl)-5-(2-(4-fluoro-3-methylphenyl)pyridin-3-yl)pyrazolo[1,5-a]pyridine-3-carboxamide], the IC50 came to 593 nM.

As for `COC(=O)c1cnc2ccc(-c3cccnc3-c3ccc(F)c(C)c3)cn12` [compound 685, Methyl 6-(2-(4-fluoro-3-methylphenyl)pyridin-3-yl)imidazo[1,2-a]pyridine-3-carboxylate], the IC50 amounted to 150 nM. For `Fc1ccc(-c2ncccc2-c2ccc3ncsc3c2)cc1Cl` [compound 686, 6-(2-(3-Chloro-4-fluorophenyl)pyridin-3-yl)benzo[d]thiazole], the IC50 was found to be 205 nM. `Fc1ccc(-c2ncccc2-c2ccc3nccn3c2)cc1Cl` [compound 687, 6-(2-(3-Chloro-4-fluorophenyl)pyridin-3-yl)imidazo[1,2-a]pyridine]: the IC50 is 172 nM.

On to `Fc1ccc(-c2ncccc2-c2ccc3ncccc3c2)cc1Cl` [compound 688, 6-(2-(3-Chloro-4-fluorophenyl)pyridin-3-yl)quinoline], for which the IC50 is 1260 nM. For `N#Cc1cnc2ccc(-c3cccnc3-c3ccc(F)c(Cl)c3)cn12` [compound 689, 6-(2-(3-Chloro-4-fluorophenyl)pyridin-3-yl)imidazo[1,2-a]pyridine-3-carbonitrile], the IC50 amounted to 516 nM. With `Fc1ccc(-c2ncccc2-c2ccc3nccnc3c2)cc1Cl` [compound 690, 6-(2-(3-Chloro-4-fluorophenyl)pyridin-3-yl)quinoxaline] the figure was 414 nM; with `Fc1ccc(-c2ncccc2-c2ccc3ncccc3n2)cc1Cl` [compound 691, 2-(2-(3-Chloro-4-fluorophenyl)pyridin-3-yl)-1,5-naphthyridine], 447 nM; with `Fc1ccc(-c2ncccc2-c2ccc3ncnn3c2)cc1Cl` [compound 692, 6-(2-(3-Chloro-4-fluorophenyl)pyridin-3-yl)-[1,2,4]triazolo[1,5-a]pyridine], 436 nM. Turning to `Fc1cc(F)c(-c2ncccc2-c2ccc3ncsc3c2)cc1F` [compound 693, 6-(2-(2,4,5-Trifluorophenyl)pyridin-3-yl)benzo[d]thiazole], the IC50 was 507 nM. For `Fc1cc(F)c(-c2ncccc2-c2ccc3nccn3c2)cc1F` [compound 694, 6-(2-(2,4,5-Trifluorophenyl)pyridin-3-yl)imidazo[1,2-a]pyridine], the IC50 stood at 794 nM. Next, `N#Cc1cnc2ccc(-c3cccnc3-c3cc(F)c(F)cc3F)cn12` [compound 695, 6-(2-(2,4,5-Trifluorophenyl)pyridin-3-yl)imidazo[1,2-a]pyridine-3-carbonitrile]: 1520 nM; `Fc1cc(F)c(-c2ncccc2-c2ccc3ncccc3c2)cc1F` [compound 696, 6-(2-(2,4,5-Trifluorophenyl)pyridin-3-yl)quinoline]: 2110 nM; `N#Cc1cnc2ccc(-c3cccnc3-c3cccc(Cl)c3)cn12` [compound 697, 6-(2-(3-Chlorophenyl)pyridin-3-yl)imidazo[1,2-a]pyridine-3-carbonitrile]: 415 nM. With `Clc1cccc(-c2ncccc2-c2ccc3nccn3c2)c1` [compound 698, 6-(2-(3-Chlorophenyl)pyridin-3-yl)imidazo[1,2-a]pyridine] the figure was 145 nM; with `Clc1cccc(-c2ncccc2-c2ccc3ncccc3c2)c1` [compound 699, 6-(2-(3-Chlorophenyl)pyridin-3-yl)quinolone], 2300 nM.

On to `Cc1cc(-c2ncccc2-c2ccc3ncc(C(=O)NC4CCN(C(C)C)CC4)n3c2)ccc1F` [compound 700, 6-(2-(4-Fluoro-3-methylphenyl)pyridin-3-yl)-N-(1-isopropylpiperidin-4-yl)imidazo[1,2-a]pyridine-3-carboxamide], for which the IC50 came to 138 nM.

Consider `Cc1cc(-c2ncccc2-c2ccn3ncc(C(=O)NC4CCN(C(C)C)CC4)c3c2)ccc1F` [compound 701, 5-(2-(4-Fluoro-3-methylphenyl)pyridin-3-yl)-N-(1-isopropylpiperidin-4-yl)pyrazolo[1,5-a]pyridine-3-carboxamide], for which the IC50 came out at 167 nM. Next, `Cc1cc(-c2ncccc2-c2ccc3ncc(C(=O)NC4CC(C)(C)N(C)C(C)(C)C4)n3c2)ccc1F` [compound 702, 6-(2-(4-Fluoro-3-methylphenyl)pyridin-3-yl)-N-(1,2,2,6,6-pentamethylpiperidin-4-yl)imidazo[1,2-a]pyridine-3-carboxamide]: 882 nM.
